System: Plasmodium falciparum
Experiment: GSK_TCMDC: Inhibition of Plasmodium falciparum 3D7 in whole erythrocytes, using parasite LDH activity as an index of growth.
Format: functional, organism-based
Conditions: Plasmodium falciparum, 3D7

Row | SMILES | XC50
1 | Cc1cc(N/N=C/c2cccc([N+](=O)[O-])c2)c2cc(F)ccc2n1 | 595 nM
2 | Cc1[nH]c(C)c(-c2ccc(Oc3ccc(Cl)cc3)cc2)c(=O)c1Cl | 787 nM
3 | CCN(CC)CCNc1ccc(Nc2ccnc3cc4ccccc4cc23)cc1 | 197 nM
4 | Cc1cc(N[C@@H](Cc2ccccc2)C(=O)NCc2cccs2)nc(NCCc2ccccc2)n1 | 790 nM
5 | COc1cccc(C(=O)NC(c2ccccc2OC)c2cc(Cl)c3cccnc3c2O)c1 (configuration not stated) | 1190 nM
6 | Cc1cc(C)c(C(=O)Nc2n[nH]c3nnc(-c4cccc(F)c4F)cc23)c(C)c1 | 1070 nM
7 | O=c1cc(NCCCNCc2cccc(Oc3ccccc3)c2)[nH]c2ccccc12 | 946 nM
8 | CC(Cc1ccc(NC(=O)c2ccc(CNCCCCc3ccccc3)cc2)cc1)NCCc1cccc(Cl)c1 (configuration not stated) | 334 nM
9 | O=C(NCc1cccc(Cl)c1)c1ccc(CNC2CCN(Cc3ccccc3)CC2)cc1 | 884 nM
10 | CCOc1ccc2c(c1)C(C)(c1ccc3c(c1)C(C)CC(C)(C)N3)CC(C)(C)N2 (configuration not stated) | 803 nM
11 | OC(CNc1ccnc(Nc2cccc(Cl)c2)n1)c1cccc(F)c1 (configuration not stated) | 973 nM
12 | Cc1ccc2nc3sc(C(=O)NCCCN4CCC(N5CCCCC5)CC4)cc3cc2c1 | 675 nM
13 | FC(F)(F)c1cccc(-c2cc(NCCCn3ccnc3)nc(-c3ccncc3)n2)c1 | 105 nM
14 | C[C@H]1CN(Cc2cccc(-c3cc(CNC(=O)c4cccc(CN5CCN(C/C=C/c6ccccc6)CC5)c4)ccc3F)c2)CCN1 | 852 nM
15 | CC1(C)N=C(N)N=C(N)N1OCC1COc2ccccc2O1 (configuration not stated) | 35 nM
16 | Cc1cc(Nc2ccccc2)nc(Nc2ccccc2C)n1 | 1040 nM
17 | C=CCc1ccccc1OCC(O)CN(C1CCCCC1)C1CCCCC1 (configuration not stated) | 814 nM
18 | COc1cc(Cc2cnc(N)nc2N)cc(OCCCC#N)c1OC | 1030 nM
19 | Cc1cccc2nc(-c3ccc(-c4cccc(CNCCNC(=O)c5ccnn5C)c4)cc3)[nH]c12 | 396 nM
20 | CC(=O)Nc1ccc(C(=O)Nc2cccc(-c3ccc(-c4nc5cc(C(F)(F)F)ccc5[nH]4)cc3)c2)cn1 | 231 nM
21 | CS(=O)(=O)Cc1ccc(Nc2nccc(-c3c(-c4cccc(NC(=O)c5c(F)cccc5F)c4)nn4ncccc34)n2)cc1 | 162 nM
22 | COc1cc(-c2nc(-c3ccc([N+](=O)[O-])cc3)c(-c3ccccc3)[nH]2)cc(OC)c1O | 830 nM
23 | CCC(Nc1noc(-c2c(-c3ccccc3)noc2C)n1)c1ccccc1 (configuration not stated) | 973 nM
24 | COc1ccc(-c2ccc([N+](=O)[O-])cc2C(=O)NCC(C)Oc2ccc(C(F)(F)F)cc2)cc1 (configuration not stated) | 550 nM
25 | CC(C)OC(=O)c1ccccc1S(N)(=O)=O | 674 nM

Row | SMILES | XC50
26 | Cc1c(Cn2nc(Cl)c(N3CCNCC3)cc2=O)cccc1NC(=O)Nc1ccc(-c2ccccc2)cc1 | 1380 nM
27 | N#Cc1cccc(Nc2nccc(NCC(O)c3cccc(C(F)(F)F)c3)n2)c1 (configuration not stated) | 553 nM
28 | c1ccc(CCNCc2cccc(-c3ccc(CNc4ccc5ncccc5c4)cc3)c2)cc1 | 810 nM
29 | CCN(CCCN1CCCCC1)c1cc(C)nc(Nc2ccc(C)c(C)c2)n1 | 1020 nM
30 | O=C(Nc1cccc(F)c1)c1ccc(C(=O)NC2CCN(CC3CCCCC3)CC2)cc1 | 863 nM
31 | O=C(NCc1ccc(F)cc1)Nc1cccc(-c2ccc(-c3nc4cc(F)ccc4[nH]3)cc2)c1 | 226 nM
32 | C/C(=C\C(=O)NC1CC1)c1ccccc1OCc1ccccc1 | 504 nM
33 | CCc1ccc(NC(=O)c2cccc(CN3CCCN(CC4CCCCC4)CC3)c2)cc1 | 952 nM
34 | CCOC(=O)c1ccc(OCCOc2ccccc2)cc1 | 367 nM
35 | CN(C)Cc1ccc(-c2cccc(NC(=O)c3cccc(Cl)c3)c2)cc1 | 693 nM
36 | O=S(=O)(Nc1cc2c(cc1O)CCN(C1CCC1)CC2)c1ccc(-c2ccc(F)cc2)cc1 | 417 nM
37 | COc1ccc(-c2cc(C(=O)N[C@@H](CC3CCCCC3)C(=O)NC3CCCc4ccccc43)ccc2O)cc1 (some centres not stated) | 688 nM
38 | COc1ccc2nccc([C@@H](O)CN3CCC(NC(=O)c4cc5c(F)cc(F)cc5[nH]4)CC3)c2c1 | 245 nM
39 | O=C(Nc1cccc(C(F)(F)F)c1)c1cccc2nc(C(F)(F)F)[nH]c12 | 644 nM
40 | c1csc(-c2ccc3c(c2)CC(NCc2c[nH]c4cnccc24)C3)c1 (configuration not stated) | 738 nM
41 | Cc1ccc(NC(=O)c2ccc3nccnc3c2)cc1OC1CCN(Cc2ccc(F)cc2)CC1 | 1010 nM
42 | COc1ccc(N2CCN(CCCCNC(=O)c3ccc(NC(=O)c4ccc(Cl)cc4)cc3)CC2)c(OC)c1 | 951 nM
43 | COc1ccc(-c2ccc(CN(C)C3CCC(NC(=O)c4cc5ccccc5[nH]4)CC3)cc2)cn1 (configuration not stated) | 871 nM
44 | COc1ccc2nccc([C@@H](O)CN3CCC(NC(=O)C(c4cc5ccccc5s4)N4CC(C)OC(C)C4)CC3)c2c1 (some centres not stated) | 981 nM
45 | CC(C)COc1ccc2ccccc2c1CNCCCCCCNCc1c(OCC(C)C)ccc2ccccc12 | 695 nM
46 | O=[N+]([O-])c1cccc(NC(=S)N2CCCN(Cc3ccc(C(F)(F)F)cc3)CC2)c1 | 1200 nM
47 | CCCC(C)Nc1nc(C)cc(N[C@@H](Cc2ccccc2)C(=O)NCc2cccc(F)c2)n1 (some centres not stated) | 882 nM
48 | Cc1ccc(C2CCN(CCCCNC(=O)c3ccc(NC(=O)c4ccc(Cl)cc4)cc3)CC2)c(C)c1 | 842 nM
49 | COc1ccc(C2C(C(=O)Nc3cc(OC)c(OC)c(OC)c3)c3cc(OC)c(OC)cc3C(=O)N2C)cc1 (configuration not stated) | 801 nM
50 | O=C(NC1CCN(CCCOc2ccnc3cc(Cl)ccc23)C1)c1ccc(Br)cc1 (configuration not stated) | 1020 nM

Row | SMILES | XC50
51 | CCN(CC)CCCNc1ncc2c(-c3ccc(NC(=O)Nc4cc(C(F)(F)F)ccc4F)c(F)c3)nn(C)c2n1 | 272 nM
52 | CC(Cc1ccc(COc2ccc(CC(CO)NCCc3cccc(Cl)c3)cc2)cc1)NCCc1cccc(Cl)c1 (configuration not stated) | 821 nM
53 | N#Cc1ccc(NC(=O)NC2CCN(CCCCCNC(=O)/C=C/c3ccc(Cl)c(Cl)c3)CC2)cc1 | 800 nM
54 | CC(C)(CNC(=O)/C=C/c1ccc(C(F)(F)F)cc1)CNc1cc(=O)c2ccccc2[nH]1 | 912 nM
55 | CCCc1cc(=O)oc2cc(OC)c(C(=O)CC(C)C)c(OC)c12 | 1010 nM
56 | OC(c1ccccc1)C1CN(CCc2ccccc2)CCC1(O)c1ccccc1 (configuration not stated) | 1040 nM
57 | CN(C)CCN(C)Cc1ccc(-c2cccc(NC(=O)c3cccc(C#N)c3)c2)cc1 | 1180 nM
58 | CN1C2CCC1c1cc(NC(=O)c3cc(-c4ccc(Cl)cc4)cs3)ccc12 (configuration not stated) | 1300 nM
59 | CCCC(C)Nc1nc(C)cc(N[C@@H](CC(C)C)C(=O)NCc2cccc(F)c2)n1 (some centres not stated) | 1000 nM
60 | O=C(CCc1nc2c(cnn2-c2ccccc2)c(=O)[nH]1)NC1CCSc2ccccc21 (configuration not stated) | 1060 nM
61 | c1cc(CNCCN2CCNCC2)cc(-c2cccc(-c3nc4ccccc4[nH]3)c2)c1 | 959 nM
62 | Fc1ccccc1COc1ccc(Nc2ncnc3ccc(I)cc23)cc1Cl | 930 nM
63 | C[C@H](Cc1ccc(OCCCCOc2ccc(C[C@@H](C)NC[C@H](O)c3cccc(Cl)c3)cc2)cc1)NC[C@H](O)c1cccc(Cl)c1 | 756 nM
64 | CN(C)CCNC(=O)N1CCCN(c2ncnc3cc(-c4ccc(Cl)cc4)sc23)CC1 | 1020 nM
65 | COc1cncc(/C=C/c2cncc(C(=O)NCCc3ccc(Cl)cc3Cl)c2)c1 | 879 nM
66 | CN1CCN(c2ccnc3ccc(NC(=O)Nc4ccc(-c5ccncc5)c(C#N)c4)cc23)CC1 | 158 nM
67 | Cc1nnsc1C(=O)Nc1cccc(-c2cccc(-c3nc4cc(F)ccc4[nH]3)c2)c1 | 218 nM
68 | COc1ccc2nccc([C@@H](O)CNCCCN(C)CCOc3cc(F)cc(F)c3)c2c1 | 789 nM
69 | O=C(/C=C/c1ccc(F)c(C(F)(F)F)c1)N1CCC(CN2CCC(c3c[nH]c4ccccc34)CC2)CC1 | 917 nM
70 | CCCCC(CC)NC(=O)[C@H]1CNCCN1C(=O)CCCc1ccccc1 (some centres not stated) | 885 nM
71 | O=C(/C=C/c1ccc(Cl)c(Cl)c1)NC1CCC(CN2CCC(c3nc4ccccc4n3CCCO)CC2)CC1 (configuration not stated) | 577 nM
72 | COc1ccc(CN2CCN(CCOC(c3ccccc3)c3ccc(Cl)cc3)CC2)c(O)c1 (configuration not stated) | 713 nM
73 | CCNc1cc(C(=O)N[C@@H](Cc2ccccc2)[C@H](O)CNC(CC)c2cccc(Cl)c2)cc(N2CCCCS2(=O)=O)c1 (some centres not stated) | 51.7 nM
74 | O=C(Nc1ccsc1)Nc1cccc(-c2cccc(-c3nc4cc(F)ccc4[nH]3)c2)c1 | 199 nM
75 | CC(C)C[C@H](NC(=O)[C@H](Cc1ccccc1)NC(=O)CCN1C(=O)COc2ccc(C(=O)O)cc21)C(=O)NC(CC1CCCCC1)C(O)CC(=O)NCCCn1ccnc1 (some centres not stated) | 970 nM

Row | SMILES | XC50
76 | Nc1nc(F)nc2nc[nH]c12 | 432 nM
77 | CN(Cc1cnc2nc(N)nc(N)c2n1)c1ccc(C(=O)N[C@H](CCC(=O)OC(C)(C)C)C(=O)N[C@@H](CCC(=O)OC(C)(C)C)C(=O)OC(C)(C)C)cc1 | 1020 nM
78 | Cn1nc(-c2ccc(S(=O)(=O)N3CCC(CCN4CCC(c5c[nH]c6ccccc56)CC4)CC3)s2)cc1C(F)(F)F | 815 nM
79 | Cc1cccc2nc(-c3ccc(-c4cccc(NC(=O)C(=O)c5cccn5C)c4)cc3)[nH]c12 | 976 nM
80 | CCN1CCN(C(=O)NC(C(=O)N(C)Cc2ccc(-c3ccc(C(F)(F)F)cc3)cc2)c2cccs2)C(=O)C1=O (configuration not stated) | 356 nM
81 | C=CCc1cc(Cc2cnc(N)nc2N)c2ccc(C)nc2c1OC | 691 nM
82 | CN(C)CCCNc1ccnc2cc(Cl)ccc12 | 283 nM
83 | CCc1nc(N)nc(N)c1-c1ccc2c(c1)CCCC2 | 196 nM
84 | COc1cc(Cc2cnc(N)nc2N)cc(OCCCCC#N)c1OC | 1040 nM
85 | CC(C)(C)OC(=O)N[C@@H](Cc1ccccc1)C(=O)Nc1cccc(-c2cccc(NC(=O)[C@H](Cc3ccccc3)NC(=O)OC(C)(C)C)c2)c1 | 609 nM
86 | Cc1ccc(S(=O)(=O)NC(=N)NC(N)=O)cc1 | 794 nM
87 | C[C@H]1CN(Cc2cccc(-c3cc(CNC(=O)c4cccc(CC5CCN(C)CC5)c4)ccc3F)c2)CCN1C | 1090 nM
88 | CC1(C)N=C(N)N=C(N)N1OCc1cccc(C#N)c1 | 7.93 nM
89 | Oc1ccc(-c2cncc(NCc3ccc(F)c(F)c3)c2)cc1 | 768 nM
90 | Fc1ccc2[nH]c(-c3ccc(-c4ccc(CN5CCC(CCN6CCCCC6)CC5)cc4)cc3)nc2c1 | 129 nM
91 | CN(C)CCOc1ccc2nc(-c3cccc(OCc4ccccc4)c3)[nH]c2c1C#N | 256 nM
92 | CN1CC=C(C=Cc2c[nH]c3ccccc23)CC1 | 1340 nM
93 | COc1cccc(CNC(=O)NC2CCN(c3ccnc(Nc4ccc(F)cc4)n3)C2)c1 (configuration not stated) | 805 nM
94 | Cc1nc(C)c(-c2ccc(Oc3cc(Cl)cc(Cl)c3)cc2)c(O)c1Cl | 524 nM
95 | Cc1cc(NS(=O)(=O)c2cccc(C(C)N3CCC(N4CCCC4)CC3)c2)ccc1C(C)C (configuration not stated) | 824 nM
96 | c1csc(-c2nc(N3CCCC3)ncc2-c2ccsc2)n1 | 210 nM
97 | Fc1ccc(-c2cc(NCCCn3ccnc3)nc(-c3cccnc3)n2)cc1 | 974 nM
